These results are taken from PubChem BioAssay AID330 (DTP/NCI, 2004).

The subject of this assay is P388 leukemia ip, CD2F1 mice, survival T/C. Kind of assay: NCI In Vivo Anticancer Drug Screen. Data for tumor model P388 Leukemia (intraperitoneal) in CD2F1 (CDF1) mice. Particulars: endpoint: median survival time, higher = longer survival. In a few lines: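 Mice carrying the transplanted tumor received test compound or vehicle. Survival was recorded in each group, and the value is the treated-group measurement divided by that of the vehicle-treated control group.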

Setting [1] is: dose: 50.0 mg/kg/injection, schedule: Q01DX005 (ip), vehicle: saline.
Setting [2] is: dose: 100.0 mg/kg/injection, schedule: Q01DX005 (ip), vehicle: saline.
[3] abbreviates: dose: 200.0 mg/kg/injection, schedule: Q01DX005 (ip), vehicle: saline.
Setting [4] is: dose: 60.0 mg/kg/injection, schedule: Q01DX005 (ip), vehicle: Klucel (hydroxypropylcellulose) (HPC).
[5] abbreviates: dose: 120.0 mg/kg/injection, schedule: Q01DX005 (ip), vehicle: Klucel (hydroxypropylcellulose) (HPC).
The mark [6] stands for this setting: dose: 50.0 mg/kg/injection, schedule: Q01DX009 (ip), vehicle: saline.
Where [7] appears, read: dose: 100.0 mg/kg/injection, schedule: Q01DX009 (ip), vehicle: saline.
The mark [8] stands for this setting: dose: 200.0 mg/kg/injection, schedule: Q01DX009 (ip), vehicle: saline.
[9] abbreviates: dose: 25.0 mg/kg/injection, schedule: Q01DX009 (ip), vehicle: saline.

“And” between values parts separate entries of the source, which are not always exact repeats. Equal values may be shown once. Toxic doses and inconclusive results are not listed.

On to `COc1ccc2[nH]c3ccc4cc[n+](CCN5CCC(C6CCN(CC[n+]7ccc8ccc9[nH]c%10ccc(OC)cc%10c9c8c7)CC6)CC5)cc4c3c2c1`, for which the T/C is, setting by setting: (dose: 1.0 mg/kg/injection, schedule: Q01DX005 (ip), vehicle: water) 165 % of control; (dose: 1.56 mg/kg/injection, schedule: Q01DX005 (ip), vehicle: Klucel (hydroxypropylcellulose) (HPC)) 159 % of control and 160 % of control; (dose: 2.0 mg/kg/injection, schedule: Q01DX005 (ip), vehicle: water) 160 % of control and 170 % of control; (dose: 3.12 mg/kg/injection, schedule: Q01DX005 (ip), vehicle: Klucel (hydroxypropylcellulose) (HPC)) 150 % of control and 166 % of control; (dose: 4.0 mg/kg/injection, schedule: Q01DX005 (ip), vehicle: water) 161 % of control and 182 % of control; (dose: 6.25 mg/kg/injection, schedule: Q01DX005 (ip), vehicle: Klucel (hydroxypropylcellulose) (HPC)) 167 % of control and 169 % of control. For the same molecule, the T/C (dose: 6.25 mg/kg/injection, schedule: Q01DX005 (ip), vehicle: other) is 161 % of control; the T/C (dose: 8.0 mg/kg/injection, schedule: Q01DX005 (ip), vehicle: water) was 163 % of control and 173 % of control and 191 % of control; the T/C (dose: 12.5 mg/kg/injection, schedule: Q01DX005 (ip), vehicle: Klucel (hydroxypropylcellulose) (HPC)) was 179 % of control and 201 % of control; the T/C (dose: 12.5 mg/kg/injection, schedule: Q01DX005 (ip), vehicle: other) was 193 % of control; the T/C (dose: 16.0 mg/kg/injection, schedule: Q01DX005 (ip), vehicle: water) is 160 % of control and 190 % of control and 221 % of control; the T/C (dose: 25.0 mg/kg/injection, schedule: Q01DX005 (ip), vehicle: Klucel (hydroxypropylcellulose) (HPC)) was 179 % of control and 200 % of control and 212 % of control. For the same molecule, the T/C by setting is: (dose: 25.0 mg/kg/injection, schedule: Q01DX005 (ip), vehicle: other) 175 % of control and 204 % of control; (dose: 32.0 mg/kg/injection, schedule: Q01DX005 (ip), vehicle: water) 167 % of control and 185 % of control and 223 % of control; (dose: 50.0 mg/kg/injection, schedule: Q01DX005 (ip), vehicle: Klucel (hydroxypropylcellulose) (HPC)) 160 % of control and 224 % of control and 255 % of control; (dose: 50.0 mg/kg/injection, schedule: Q01DX005 (ip), vehicle: other) 153 % of control and 160 % of control; (dose: 100.0 mg/kg/injection, schedule: Q01DX005 (ip), vehicle: Klucel (hydroxypropylcellulose) (HPC)) 193 % of control; (dose: 200.0 mg/kg/injection, schedule: Q01DX005 (ip), vehicle: Klucel (hydroxypropylcellulose) (HPC)) 112 % of control.
Turning to `O=C(O)CC(C(=O)O)S(=O)CP(=O)(O)O` (stereo not drawn), the T/C by setting is: under setting [1], 95 % of control; under setting [2], 103 % of control; under setting [3], 110 % of control.
Consider `COC(=O)c1nc(N)nc(C(=O)OC)c1C(=O)c1cccc2ccccc12`, for which the T/C under setting [4] was 99 % of control and the T/C under setting [5] was 100 % of control.
For `NNC(=O)Cc1cccc2ccc(Cl)cc12` the same measures were 92 % of control and 88 % of control.
For the molecule `C=C1CC[C@]2(C)CC[C@]3(C)C4=CC=C5C(=CC(=O)C(O)=C5C)[C@]4(C)CC[C@@]3(C)[C@@H]2C1`, the T/C was 97 % of control (dose: 0.06 mg/kg/injection, schedule: Q01DX009 (ip), vehicle: saline with Tween-80); 93 % of control (dose: 0.09 mg/kg/injection, schedule: Q01DX009 (ip), vehicle: none); 103 % of control (dose: 0.12 mg/kg/injection, schedule: Q01DX009 (ip), vehicle: saline with Tween-80); 103 % of control (dose: 0.19 mg/kg/injection, schedule: Q01DX009 (ip), vehicle: none); 100 % of control and 103 % of control (dose: 0.25 mg/kg/injection, schedule: Q01DX009 (ip), vehicle: saline with Tween-80); 107 % of control and 98 % of control (dose: 0.5 mg/kg/injection, schedule: Q01DX009 (ip), vehicle: none). In addition, the T/C by setting is: (dose: 0.5 mg/kg/injection, schedule: Q01DX009 (ip), vehicle: saline with Tween-80) 103 % of control and 115 % of control; (dose: 0.75 mg/kg/injection, schedule: Q01DX009 (ip), vehicle: none) 103 % of control and 107 % of control; (dose: 1.0 mg/kg/injection, schedule: Q01DX009 (ip), vehicle: none) 110 % of control; (dose: 1.0 mg/kg/injection, schedule: Q01DX009 (ip), vehicle: saline with Tween-80) 112 % of control and 119 % of control; (dose: 1.5 mg/kg/injection, schedule: Q01DX009 (ip), vehicle: none) 105 % of control and 120 % of control and 98 % of control; (dose: 2.0 mg/kg/injection, schedule: Q01DX009 (ip), vehicle: none) 115 % of control and 120 % of control. Besides, the T/C (dose: 3.0 mg/kg/injection, schedule: Q01DX009 (ip), vehicle: none) is 95 % of control.
As to `C/C=C(\C)C(=O)OC1C(C)=C2C(C1OC(=O)CCCC)C(C)(OC(C)=O)CC(OC(=O)CCCC)C1(O)C2OC(=O)C1(C)O` (stereo not drawn), the T/C by setting is: (dose: 0.37 mg/kg/injection, schedule: Q01DX009 (ip), vehicle: Klucel (hydroxypropylcellulose) (HPC)) 92 % of control; (dose: 0.75 mg/kg/injection, schedule: Q01DX009 (ip), vehicle: Klucel (hydroxypropylcellulose) (HPC)) 101 % of control; (dose: 1.5 mg/kg/injection, schedule: Q01DX009 (ip), vehicle: Klucel (hydroxypropylcellulose) (HPC)) 100 % of control; (dose: 3.0 mg/kg/injection, schedule: Q01DX009 (ip), vehicle: Klucel (hydroxypropylcellulose) (HPC)) 100 % of control.
On to `O=S(O)Cc1ccccc1CSSSCc1ccccc1CS(=O)O`, for which the T/C (dose: 25.0 mg/kg/injection, schedule: Q01DX005 (ip), vehicle: saline) is 114 % of control; the T/C under setting [1] was 114 % of control; the T/C under setting [2] was 114 % of control; the T/C under setting [3] was 112 % of control.
In the case of `O=[N+]([O-])c1cnc(/C=[N+](\[O-])C2CCCCC2)n1CCO`, the T/C under setting [6] was 98 % of control, the T/C under setting [7] is 100 % of control and the T/C under setting [8] was 102 % of control.
In the case of `N#Cc1ccccc1CC(O)(c1ccccc1)c1ccccc1`, the T/C is 99 % of control (dose: 100.0 mg/kg/injection, schedule: Q01DX009 (ip), vehicle: saline with Tween-80); 100 % of control (dose: 200.0 mg/kg/injection, schedule: Q01DX009 (ip), vehicle: saline with Tween-80); 91 % of control (dose: 400.0 mg/kg/injection, schedule: Q01DX009 (ip), vehicle: saline with Tween-80).
On to `Cc1cc(=O)n2c(c1)[nH]c1ccccc12`, for which the T/C was 89 % of control (dose: 100.0 mg/kg/injection, schedule: Q01DX001 (ip), vehicle: Klucel (hydroxypropylcellulose) (HPC)); 90 % of control (dose: 200.0 mg/kg/injection, schedule: Q01DX001 (ip), vehicle: Klucel (hydroxypropylcellulose) (HPC)); 88 % of control (dose: 400.0 mg/kg/injection, schedule: Q01DX001 (ip), vehicle: Klucel (hydroxypropylcellulose) (HPC)).
Regarding `N#CCC(=O)NCc1ccncc1`, the T/C under setting [9] was 110 % of control; the T/C under setting [6] is 100 % of control; the T/C under setting [7] is 108 % of control; the T/C under setting [8] was 110 % of control; the T/C (dose: 400.0 mg/kg/injection, schedule: Q01DX009 (ip), vehicle: saline) was 101 % of control.
As for `COc1cccc(N)c1N`, the T/C was 99 % of control under setting [9]; 103 % of control (dose: 25.0 mg/kg/injection, schedule: Q01DX009 (ip), vehicle: suspension in saline); 100 % of control under setting [6]; 106 % of control (dose: 50.0 mg/kg/injection, schedule: Q01DX009 (ip), vehicle: suspension in saline); 106 % of control under setting [7]; 107 % of control (dose: 100.0 mg/kg/injection, schedule: Q01DX009 (ip), vehicle: suspension in saline). The T/C reads like this: under setting [8], 96 % of control; (dose: 200.0 mg/kg/injection, schedule: Q01DX009 (ip), vehicle: suspension in saline) 91 % of control.
Take `O=C(N/N=C\c1cccc2ccccc12)C(=O)N/N=C/c1cccc2ccccc12`: the T/C by setting is: (dose: 12.5 mg/kg/injection, schedule: Q01DX005 (ip), vehicle: saline with Tween-80) 93 % of control; (dose: 25.0 mg/kg/injection, schedule: Q01DX005 (ip), vehicle: saline with Tween-80) 91 % of control; (dose: 50.0 mg/kg/injection, schedule: Q01DX005 (ip), vehicle: saline with Tween-80) 94 % of control; (dose: 100.0 mg/kg/injection, schedule: Q01DX005 (ip), vehicle: saline with Tween-80) 87 % of control; (dose: 200.0 mg/kg/injection, schedule: Q01DX005 (ip), vehicle: saline with Tween-80) 91 % of control.
